This test deals with human GPR40 receptor (Homo sapiens, UniProt O14842). The test can be described thus: Assay II: IP1 accumulation (IPOne HTRF) in 1321N1 cells stably expressing human GPR40. The note with it: 1321N1 cells expressing human GPR40, stimulation 1 h at 37° C., 5% CO2, LiCl 50 mM. In kind it is cell-based. The method, boiled down:
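1321N1 cells stably expressing human GPR40, seeded 24 h earlier, were stimulated with compound for 1 h at 37 °C in LiCl (50 mM) buffer, pH 7.4. IP1 measured by HTRF (665/615 ratio) after lysis and 1 h room temperature; pEC50 via IP1 reference curve and variable-slope sigmoidal fit.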

A value given as a limit tells only on which side of the number the result lay.

human GPR40 receptor, sequence (O14842 whole entry): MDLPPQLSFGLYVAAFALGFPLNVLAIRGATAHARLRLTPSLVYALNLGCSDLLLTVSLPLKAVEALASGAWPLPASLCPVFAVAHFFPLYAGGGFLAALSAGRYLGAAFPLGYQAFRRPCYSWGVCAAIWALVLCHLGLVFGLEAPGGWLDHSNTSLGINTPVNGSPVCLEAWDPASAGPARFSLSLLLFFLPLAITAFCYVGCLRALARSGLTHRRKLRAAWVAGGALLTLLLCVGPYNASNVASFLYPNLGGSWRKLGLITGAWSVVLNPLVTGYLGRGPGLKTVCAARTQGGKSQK

Consider `Cc1cc(OC2CCC(C)(O)C2)cc(C)c1-c1ccc(F)c2c1CC[C@H]2Oc1ccc2c(c1)OC[C@H]2CC(=O)O` (single isomer, unassigned) [Example 78], for which a half-maximal response (EC50) required 4 nM.
For `Cc1cc(C2CCOCC2)cc(C)c1-c1ccc(F)c2c1CC[C@H]2Oc1ccc2c(c1)OC[C@H]2CC(=O)O` [Example 80, 2-((S)-6-((R)-4-(2,6-Dimethyl-4-(tetrahydro-2H-pyran-4-yl)phenyl)-7-fluoro-2,3-dihydro-1H-inden-1-yloxy)-2,3-dihydrobenzofuran-3-yl)acetic acid], the response was half-maximal at 11 nM (EC50). Against the preceding molecule, the EC50 is about 2.8-fold higher.
In turn, `Cc1cc(C2=CC(=O)OCC2)cc(C)c1-c1ccc(F)c2c1CC[C@H]2Oc1ccc2c(c1)OC[C@H]2CC(=O)O` [Example 81, 2-((S)-6-((R)-4-(2,6-Dimethyl-4-(6-oxo-3,6-dihydro-2H-pyran-4-yl)phenyl)-7-fluoro-2,3-dihydro-1H-inden-1-yloxy)-2,3-dihydrobenzofuran-3-yl)acetic acid] gave an EC50 of 8 nM.
With `Cc1cc(-c2nnn(C)n2)cc(C)c1-c1ccc(F)c2c1CC[C@H]2Oc1ccc2c(c1)OC[C@H]2CC(=O)O` [Example 95, 2-((S)-6-((R)-4-(2,6-Dimethyl-4-(2-methyl-2H-tetrazol-5-yl)phenyl)-7-fluoro-2,3-dihydro-1H-inden-1-yloxy)-2,3-dihydrobenzofuran-3-yl)acetic acid] the figure was 3 nM; with `Cc1cc(OC2CCC(C)(O)C2)cc(C)c1-c1ccc(F)c2c1CC[C@H]2Oc1ccc2c(c1)OC[C@H]2CC(=O)O` (single isomer, unassigned) [Example 79], 5 nM.
The molecule `Cc1cc(-c2cnc(=O)n(C)c2)cc(C)c1-c1ccc(F)c2c1CC[C@H]2Oc1ccc2c(c1)OC[C@H]2CC(=O)O` [Example 89, 2-((S)-6-((R)-4-(2,6-Dimethyl-4-(1-methyl-2-oxo-1,2-dihydropyrimidin-5-yl)phenyl)-7-fluoro-2,3-dihydro-1H-inden-1-yloxy)-2,3-dihydrobenzofuran-3-yl)acetic acid] displayed an EC50 of 9 nM.
Regarding `Cc1cc(OCC2CCOCC2)cc(C)c1-c1ccc(F)c2c1CC[C@H]2Oc1ccc2c(c1)OC[C@H]2CC(=O)O` [Example 150, 2-((S)-6-((R)-4-(2,6-dimethyl-4-((tetrahydro-2H-pyran-4-yl)methoxy)phenyl)-7-fluoro-2,3-dihydro-1H-inden-1-yloxy)-2,3-dihydrobenzofuran-3-yl)acetic acid], the EC50 is 6 nM.
As for `COc1ccc(-c2cc(C)c(-c3ccc(F)c4c3CC[C@H]4Oc3ccc4c(c3)OC[C@H]4CC(=O)O)c(C)c2)cn1` [Example 126, {(S)-6-[(R)-4-(2,6-Dimethyl-4-(6-methoxy-pyridin-3-yl)-phenyl)-7-fluoro-indan-1-yloxy]-2,3-dihydro-benzofuran-3-yl}-acetic acid], the EC50 stood at 6 nM.
On to `Cc1cc(-c2ccn(C)c(=O)n2)cc(C)c1-c1ccc(F)c2c1CC[C@H]2Oc1ccc2c(c1)OC[C@H]2CC(=O)O` [Example 97, 2-((S)-6-((R)-4-(2,6-Dimethyl-4-(1-methyl-2-oxo-1,2-dihydropyrimidin-4-yl)phenyl)-7-fluoro-2,3-dihydro-1H-inden-1-yloxy)-2,3-dihydrobenzofuran-3-yl)acetic acid], for which it took 5 nM to reach a half-maximal effect (EC50).
Molecule `Cc1cc(-c2nnn(C(C)(C)CO)n2)cc(C)c1-c1ccc(F)c2c1CC[C@H]2Oc1ccc2c(c1)OC[C@H]2CC(=O)O` [Example 99, 2-((S)-6-((R)-7-Fluoro-4-(4-(2-(1-hydroxy-2-methylpropan-2-yl)-2H-tetrazol-5-yl)-2,6-dimethylphenyl)-2,3-dihydro-1H-inden-1-yloxy)-2,3-dihydrobenzofuran-3-yl)acetic acid] gave an EC50 of 4 nM.
The molecule `Cc1cc(-c2cn(C)c(C)n2)cc(C)c1-c1ccc(F)c2c1CC[C@H]2Oc1ccc2c(c1)OC[C@H]2CC(=O)O` [Example 131, {(S)-6-[(R)-4-(2,6-Dimethyl-4-(1,2-dimethyl-imidazol-4-yl)-phenyl)-7-fluoro-indan-1-yloxy]-2,3-dihydro-benzofuran-3-yl}-acetic acid] displayed a concentration for a half-maximal effect (EC50) of 2 nM.
For the molecule `Cc1cc(OCC2(O)CCOCC2)cc(C)c1-c1ccc(F)c2c1CC[C@H]2Oc1ccc2c(c1)OC[C@H]2CC(=O)O` [Example 66, 2-((S)-6-((R)-7-Fluoro-4-(4-((4-hydroxytetrahydro-2H-pyran-4-yl)methoxy)-2,6-dimethylphenyl)-2,3-dihydro-1H-inden-1-yloxy)-2,3-dihydrobenzofuran-3-yl)acetic acid], a half-maximal effect (EC50) was put at 5 nM. Compared with the last molecule, the EC50 is about 2.5-fold higher.
Consider `Cc1cc(C(=O)NCC(C)(C)O)cc(C)c1-c1ccc(F)c2c1CC[C@H]2Oc1ccc2c(c1)OC[C@H]2CC(=O)O` [Example 54, ((S)-6-{(R)-7-Fluoro-4-[4-(2-hydroxy-2-methyl-propylcarbamoyl)-2,6-dimethyl-phenyl]-indan-1-yloxy}-2,3-dihydro-benzofuran-3-yl)-acetic acid], for which the EC50 came out at 13 nM. Compared with the last molecule, the EC50 is about 2.6-fold higher.
In the case of `Cc1cc(OC[C@H](C)CS(C)(=O)=O)cc(C)c1-c1ccc(F)c2c1CC[C@H]2Oc1ccc2c(c1)OC[C@H]2CC(=O)O` [Example 37, ((S)-6-{(R)-7-Fluoro-4-[4-((S)-3-methanesulfonyl-2-methyl-propoxy)-2,6-dimethyl-phenyl]-indan-1-yloxy}-2,3-dihydro-benzofuran-3-yl)-acetic acid], the EC50 was found to be 6 nM. This EC50 lies about 2.2-fold lower than the previous one.
Turning to `Cc1ccc(-c2cc(C)c(-c3ccc(F)c4c3CC[C@H]4Oc3ccc4c(c3)OC[C@H]4CC(=O)O)c(C)c2)nn1` [Example 120, {(S)-6-[(R)-4-(2,6-Dimethyl-4-(6-methyl-pyridazin-3-yl)-phenyl)-7-fluoro-indan-1-yloxy]-2,3-dihydro-benzofuran-3-yl}-acetic acid], the EC50 came out at 2 nM.
Then `Cc1nc(-c2cc(C)c(-c3ccc(F)c4c3CC[C@H]4Oc3ccc4c(c3)OC[C@H]4CC(=O)O)c(C)c2)no1` [Example 134, {(S)-6-[(R)-4-(2,6-Dimethyl-4-(5-methyl-[1,2,4]oxadiazol-3-yl)-phenyl)-7-fluoro-indan-1-yloxy]-2,3-dihydro-benzofuran-3-yl}-acetic acid], with 3 nM.
Consider `Cc1cc(-c2ccnnc2)cc(C)c1-c1ccc(F)c2c1CC[C@H]2Oc1ccc2c(c1)OC[C@H]2CC(=O)O` [Example 90, 2-((S)-6-((R)-4-(2,6-Dimethyl-4-(pyridazin-4-yl)phenyl)-7-fluoro-2,3-dihydro-1H-inden-1-yloxy)-2,3-dihydrobenzofuran-3-yl)acetic acid], for which the EC50 was 5 nM.
Then `Cc1cccc(C)c1-c1ncccc1-c1ccc(F)c2c1CC[C@H]2Oc1ccc2c(c1)OC[C@H]2CC(=O)O` [Example 124, {(S)-6-[(R)-4-(2-(2,6-Dimethyl-phenyl)-pyridin-3-yl)-7-fluoro-indan-1-yloxy]-2,3-dihydro-benzofuran-3-yl}-acetic acid], with 339 nM.
On to `Cc1nn(C)c(C)c1-c1ncccc1-c1ccc(F)c2c1CC[C@H]2Oc1ccc2c(c1)OC[C@H]2CC(=O)O` [Example 108, {(S)-6-[(R)-7-Fluoro-4-[2-(1,3,5-trimethyl-pyrazol-4-yl)-pyridin-3-yl]-indan-1-yloxy]-2,3-dihydro-benzofuran-3-yl}-acetic acid], for which the EC50 is more than 10000 nM.
The molecule `Cc1cc(-c2ccc(=O)n(C)n2)cc(C)c1-c1ccc(F)c2c1CC[C@H]2Oc1ccc2c(c1)OC[C@H]2CC(=O)O` [Example 101, 2-((S)-6-((R)-4-(2,6-Dimethyl-4-(1-methyl-6-oxo-1,6-dihydropyridazin-3-yl)phenyl)-7-fluoro-2,3-dihydro-1H-inden-1-yloxy)-2,3-dihydrobenzofuran-3-yl)acetic acid] displayed an EC50 of 3 nM.
In the case of `Cc1cc(-c2cc(C)c(-c3ccc(F)c4c3CC[C@H]4Oc3ccc4c(c3)OC[C@H]4CC(=O)O)c(C)c2)cc(C)n1` [Example 121, {(S)-6-[(R)-4-(2,6-Dimethyl-4-(2,6-dimethyl-pyridin-4-yl)-phenyl)-7-fluoro-indan-1-yloxy]-2,3-dihydro-benzofuran-3-yl}-acetic acid], the EC50 came out at 2 nM. Against the preceding molecule, the EC50 is about 1.5-fold lower.
Then `O=C(O)C[C@@H]1COc2cc(O[C@@H]3CCc4c(-c5cccnc5N5CCOCC5)ccc(F)c43)ccc21` [Example 128, {(S)-6-[(R)-7-Fluoro-4-(2-morpholin-4-yl-pyridin-3-yl)-indan-1-yloxy]-2,3-dihydro-benzofuran-3-yl}-acetic acid], with 288 nM; and `Cc1cc(OCc2cnn(C)c2)cc(C)c1-c1ccc(F)c2c1CC[C@H]2Oc1ccc2c(c1)OC[C@H]2CC(=O)O` [Example 152, 2-((S)-6-((R)-4-(2,6-dimethyl-4-((1-methyl-1H-pyrazol-4-yl)methoxy)phenyl)-7-fluoro-2,3-dihydro-1H-inden-1-yloxy)-2,3-dihydrobenzofuran-3-yl)acetic acid], with 19 nM.
`Cc1cc(-c2ccc(=O)n(C)c2)cc(C)c1-c1ccc(F)c2c1CC[C@H]2Oc1ccc2c(c1)OC[C@H]2CC(=O)O` [Example 85, 2-((S)-6-((R)-4-(2,6-Dimethyl-4-(1-methyl-6-oxo-1,6-dihydropyridin-3-yl)phenyl)-7-fluoro-2,3-dihydro-1H-inden-1-yloxy)-2,3-dihydrobenzofuran-3-yl)acetic acid] had an EC50 of 7 nM.
Then `Cc1cc(-c2ccncc2)cc(C)c1-c1ccc(F)c2c1CC[C@H]2Oc1ccc2c(c1)OC[C@H]2CC(=O)O` [Example 104, {(S)-6-[(R)-4-(2,6-Dimethyl-4-pyridin-4-yl-phenyl)-7-fluoro-indan-1-yloxy]-2,3-dihydro-benzofuran-3-yl}-acetic acid], with 7 nM; and `Cc1cn(C)c(-c2cc(C)c(-c3ccc(F)c4c3CC[C@H]4Oc3ccc4c(c3)OC[C@H]4CC(=O)O)c(C)c2)n1` [Example 142, {(S)-6-[(R)-4-(2,6-Dimethyl-4-(1,4-dimethyl-imidazol-2-yl)-phenyl)-7-fluoro-indan-1-yloxy]-2,3-dihydro-benzofuran-3-yl}-acetic acid], with 16 nM.
